In patent US8318769B2, “Substituted sulfonamide compounds” (Gruenethal GmbH, priority 2008, dated 2012):

Assays:
[1] = biological target: T1, human bradykinin 1 receptor (B1R) (Homo sapiens, UniProt P46663); experiment: FLIPR Ca2+ assay, B1R antagonism, human; type: cell-based; details: 10 μM test substance; CHO K1 cells with human B1R gene (hB1R cells); Lys-Des-Arg9-bradykinin at EC80; % inhibition compared with the maximum achievable inhibition; read-out: B1R antagonism, human [10 μM] % inhibition
T1 construct: expressed in transfected cells
T1 sequence (P46663 1-353): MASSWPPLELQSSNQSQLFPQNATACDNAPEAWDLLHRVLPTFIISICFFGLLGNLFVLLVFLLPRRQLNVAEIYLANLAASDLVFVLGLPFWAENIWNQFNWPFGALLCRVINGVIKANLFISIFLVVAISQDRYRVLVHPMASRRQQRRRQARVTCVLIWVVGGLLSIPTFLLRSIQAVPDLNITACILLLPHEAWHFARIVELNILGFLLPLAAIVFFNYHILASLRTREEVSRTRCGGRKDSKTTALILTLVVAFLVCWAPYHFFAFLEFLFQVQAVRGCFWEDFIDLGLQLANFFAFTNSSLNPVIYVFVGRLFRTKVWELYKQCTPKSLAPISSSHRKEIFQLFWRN
Protocol: The agonistic or antagonistic action of substances can be quantified on the bradykinin 1 receptor (B1R) of the human and rat species with ectopically expressing cell lines (CHO K1 cells) and with the aid of a Ca^2+-sensitive dyestuff (Fluo-4) in a fluorescent imaging plate reader (FLIPR). The figure in % activation is based on the Ca^2+ signal after addition of Lys-Des-Arg^9-bradykinin (0.5 nM) or Des-Arg^9-bradykinin (100 nM). Antagonists lead to a suppression of the Ca^2+ inflow after addition of the agonist. % inhibition compared with the maximum achievable inhibition is stated.
The agonistic or antagonistic action of substances can be determined on the bradykinin 1 receptor (B1R) of the human and rat species with the following assay. In accordance with this assay, the Ca^2+ inflow through the channel is quantified with the aid of a Ca^2+-sensitive dyestuff (type Fluo-4, Molecular Probes Europe BV, Leiden, Holland) in a fluorescent imaging plate reader (FLIPR, Molecular Devices, Sunnyvale, USA).
Chinese hamster ovary cells (CHO K1 cells) transfected stably with the human B1R gene (hB1R cells) or the B1R gene of the rat (rB1R cells) are used. For functional studies, these cells are plated out on black 96-well plates with a clear base (BD Biosciences, Heidelberg, Germany or Greiner, Frickenhausen, Germany) in a density of 20,000-35,000 cells/well. The cells are left overnight at 37° C. and 5% CO2 in culture medium (hB1R cells: Nutrient Mixture Ham's F12, Gibco Invitrogen GmbH, Karlsruhe, Germany or DMEM, Sigma-Aldrich, Taufkirchen, Germany; rB1R cells: D-MEM/F12, Gibco Invitrogen GmbH, Karlsruhe, Germany) with 10 vol. % FBS (foetal bovine serum, Gibco Invitrogen GmbH, Karlsruhe, Germany or PAN Biotech GmbH, Aidenbach, Germany).
On the following day, the cells are loaded for 60 min at 37° C. with 2.13 μM Fluo-4 (Molecular Probes Europe BV, Leiden, Holland) in HBSS buffer (Hank's buffered saline solution, Gibco Invitrogen GmbH, Karlsruhe, Germany) with 2.5 mM probenecid (Sigma-Aldrich, Taufkirchen, Germany) and 10 mM HEPES (Sigma-Aldrich, Taufkirchen, Germany). The plates are then washed 2× with HBSS buffer, and HBSS buffer which additionally contains 0.1% BSA (bovine serum albumin; Sigma-Aldrich, Taufkirchen, Germany), 5.6 mM glucose and 0.05% gelatine (Merck KGaA, Darmstadt, Germany) is added. After a further incubation of 20 minutes at room temperature, the plates are inserted into the FLIPR for the Ca^2+ measurement.
Alternatively, the plates are washed with buffer A (15 mM HEPES, 80 mM NaCl, 5 mM KCl, 1.2 mM CaCl2, 0.7 mM MgSO4, 2 g/l glucose, 2.5 mM probenecid), buffer A is added and the plates are loaded with 2.5 μM Fluo-4 and 0.025% Pluronic F127 (Sigma-Aldrich, Taufkirchen, Germany). Thereafter, the cells are washed 2× with buffer A and incubated for 30 minutes with buffer A, which additionally contains 0.05% BSA and 0.05% gelatine, at room temperature and thereafter inserted into the FLIPR for the Ca^2+ measurement.
The Ca^2+-dependent fluorescence is measured here before and after addition of substances (λex=488 nm, λem=540 nm). Quantification is by measurement of the highest fluorescence intensity (FC, fluorescence counts) over time.
The FLIPR protocol consists of 2 additions of substance. Test substances (10 μM) are first pipetted on to the cells and the Ca^2+ inflow is compared with the control (hB1R: Lys-Des-Arg^9-bradykinin >=50 nM; rB1R: Des-Arg^9-bradykinin 10 μM). This gives the figure in % activation based on the Ca^2+ signal after addition of Lys-Des-Arg^9-bradykinin (>=50 nM) or Des-Arg^9-bradykinin (10 μM).
After incubation for 10-20 minutes, Lys-Des-Arg^9-bradykinin (hB1R) or Des-Arg^9-bradykinin (rB1R) in the concentration of the EC80 is applied and the inflow of Ca^2+ is likewise determined. Antagonists lead to a suppression of the Ca^2+ inflow. % inhibition compared with the maximum achievable inhibition is calculated. […]

[2] = biological target: T2, bradykinin 1 receptor (B1R) of the rat (Rattus norvegicus, UniProt P97583); experiment: FLIPR Ca2+ assay, B1R antagonism, rat; type: cell-based; details: CHO-K1, 10 μM test substance; CHO K1 cells with rat B1R gene (rB1R cells); Des-Arg9-bradykinin at EC80; % inhibition compared with the maximum achievable inhibition; read-out: B1R antagonism, rat [10 μM] % inhibition
T2 construct: expressed in transfected cells
T2 sequence (P97583 1-337): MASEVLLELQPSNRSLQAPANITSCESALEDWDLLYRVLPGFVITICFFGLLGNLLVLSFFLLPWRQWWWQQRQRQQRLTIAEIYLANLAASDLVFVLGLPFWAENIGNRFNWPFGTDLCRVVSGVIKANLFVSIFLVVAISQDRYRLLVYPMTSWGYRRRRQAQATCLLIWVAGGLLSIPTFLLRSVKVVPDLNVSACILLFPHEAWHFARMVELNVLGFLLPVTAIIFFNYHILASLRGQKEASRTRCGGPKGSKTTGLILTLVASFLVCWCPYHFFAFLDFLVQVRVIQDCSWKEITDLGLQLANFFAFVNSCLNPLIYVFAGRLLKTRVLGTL
Summary of the method: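 CHO K1 cells stably expressing human or rat B1R, loaded with Fluo-4 and read in FLIPR (ex 488, em 540 nm, peak fluorescence). Test compound 10 μM preincubated 10-20 min, then EC80 agonist added (Lys-Des-Arg9-bradykinin for human, Des-Arg9-bradykinin for rat); % inhibition relative to maximum achievable inhibition.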

SMILES | inhibition at 10 µM [1] [%] | inhibition at 10 µM [2] [%]
O=C(CC1CCCCN1S(=O)(=O)c1cccc(C(F)(F)F)c1)N1CCC(OCCN2CCCCC2)(c2cccnc2)CC1 (stereo not drawn) [Example 10, 1-(4-(2-(piperidin-1-yl)ethoxy)-4-(pyridin-3-yl)piperidin-1-yl)-2-(1-(3-(trifluoromethyl)phenylsulfonyl)piperidin-2-yl)ethanone] | 104 | 44
Cc1cc(S(=O)(=O)N2CCCCC2CCC(=O)N2CCC(OCCN3CCCC3)(c3cccnc3)CC2)c(C)cc1Cl (stereo not drawn) [Example 25, 3-(1-(4-chloro-2,5-dimethylphenylsulfonyl)piperidin-2-yl)-1-(4-(pyridin-3-yl)-4-(2-(pyrrolidin-1-yl)ethoxy)piperidin-1-yl)propan-1-one] | 86 | 72
COc1cc(C)c(S(=O)(=O)N2c3ccccc3OCC2COCC(=O)N2CCC(OCCN3CCCC3)(c3cccnc3)CC2)c(C)c1 (stereo not drawn) [Example 106, 2-[[4-[(4-methoxy-2,6-dimethyl-phenyl)sulfonyl]-3,4-dihydro-2H-[1,4]benzoxazin-3-yl]-methoxy]-1-[4-pyridin-3-yl-4-(2-pyrrolidin-1-yl-ethoxy)-piperidin-1-yl]-ethanone] | 100 | 101
COc1cc(C)c(S(=O)(=O)N(C)CCOCC(=O)N2CCC(OCCN3CCCCC3)(c3cccnc3)CC2)c(C)c1 [Example 15, 4-methoxy-N,2,6-trimethyl-N-(2-(2-oxo-2-(4-(2-(piperidin-1-yl)ethoxy)-4-(pyridin-3-yl)piperidin-1-yl)ethoxy)ethyl)-benzenesulfonamide] | 104 | 102

Results, then the compound that gave them:

inhibition at 10 µM [1] [%] | inhibition at 10 µM [2] [%] | SMILES
85 | 61 | Cc1cc(S(=O)(=O)N2CCCCC2CCC(=O)N2CCC(OCCN3CCN(C)CC3)(c3cccnc3)CC2)c(C)cc1Cl (stereo not drawn) [Example 31, 3-(1-(4-chloro-2,5-dimethylphenylsulfonyl)piperidin-2-yl)-1-(4-(2-(4-methylpiperazin-1-yl)ethoxy)-4-(pyridin-3-yl)piperidin-1-yl)propan-1-one]
31 | 18 | CN1CCN(CCOC2(c3cccnc3)CCN(C(=O)CC3CCCCN3S(=O)(=O)c3cccc(C(F)(F)F)c3)CC2)CC1 (stereo not drawn) [Example 30, 1-(4-(2-(4-methylpiperazin-1-yl)ethoxy)-4-(pyridin-3-yl)piperidin-1-yl)-2-(1-(3-(trifluoromethyl)phenylsulfonyl)piperidin-2-yl)ethanone]
98 | 100 | COc1cc(C)c(S(=O)(=O)N(CCOCC(=O)N2CCC(OCCN3CCCC3)(c3cccnc3)CC2)C(c2ccccc2)c2ccccc2)c(C)c1 [Example 6, N-benzhydryl-4-methoxy-2,6-dimethyl-N-(2-(2-oxo-2-(4-(pyridin-3-yl)-4-(2-(pyrrolidin-1-yl)ethoxy)piperidin-1-yl)ethoxy)ethyl)benzenesulfonamide]
100 | 99 | COc1cc(C)c(S(=O)(=O)N(C)CCOCC(=O)N2CCC(OCCN3CCCC3)(c3cccc(F)c3)CC2)c(C)c1C [Example 114, N-[2-[2-[4-(3-fluorophenyl)-4-(2-pyrrolidin-1-yl-ethoxy)-piperidin-1-yl]-2-oxo-ethoxy]-ethyl]-4-methoxy-N,2,3,6-tetramethyl-benzenesulfonic acid amide]
100 | 104 | COc1cc(C)c(S(=O)(=O)N(CCOCC(=O)N2CCC(OCC[N+]3(C)CCCC3)(c3cccnc3)CC2)C2CC2)c(C)c1 [Example 58, N-cyclopropyl-4-methoxy-2,6-dimethyl-N-[2-[2-[4-[2-(1-methyl-pyrrolidin-1-ium-1-yl)-ethoxy]-4-pyridin-3-yl-piperidin-1-yl]-2-oxo-ethoxy]-ethyl]-benzenesulfonic acid amide iodide]
